Assays:
trans-dermal wounds = experiment: wound healing of trans-dermal wounds in mice after topical application; type: in vivo; conditions: for wound healing compared with Vehicle treated wounds: 0.5 mg/ml (5 mg/kg), mice; for % healing of wounds, day 1 post treatment: day 1, 0.5 mg/ml (5 mg/kg), vehicle 16.9%; for % healing of wounds, day 1 post treatment / % healing of wounds, day 2 post treatment / % healing of wounds, day 3 post treatment / % healing of wounds, day 4 post treatment: 5 mm punch wounds; for % healing of wounds, day 2 post treatment: day 2, 0.5 mg/ml (5 mg/kg), vehicle 21.2%; for % healing of wounds, day 3 post treatment: day 3, 0.5 mg/ml (5 mg/kg), vehicle 45.9%; for % healing of wounds, day 4 post treatment: day 4, 0.5 mg/ml (5 mg/kg), vehicle 57.5%
Experimental: The vehicle (Batch A) was administered by topical application at a standardized volume of 10 ml/kg for all applications. The peptides of the invention were administered by topical application at the concentration of 0.5 mg/ml in the vehicle. The protocols of treatment were as it follows: • Group 1: (Batch A, Vehicle): 1 topical application 10 minutes after wounding • Group 2: (Peptide 7, 0.5 mg/ml): 1 topical application 10 minutes after wounding • Group 3: (Peptide 10, 0.5 mg/ml): 1 topical application 10 minutes after wounding • Group 4: (Peptide 11, 0.5 mg/ml): 1 topical application 10 minutes after wounding • Group 5: (Peptide 7B, 0.5 mg/ml): 1 topical application 10 minutes after wounding. • Group 6: (Peptide 7A, 0.5 mg/ml): 1 topical application 10 minutes after wounding. • Group 7: (Peptide 7C, 0.5 mg/ml): 1 topical application 10 minutes after wounding. Wounding
Healthy female BALBC Swiss mice were anesthetized by IP injection of Ketamine-Xylazine (80 mg/kg-12 mg/kg; Ref. K-113, Sigma, France). Two trans-dermal wounds, each of 5 mm in width and about 1 to 2 mm in depth were realized in the right and the left flanks of each mouse using 5 mm punch.
At D1, and 10 min post-injury of the animals, the mice were randomized into 7 groups of 3 mice each.
All treatments were realized by topical application at the frequency of 1 topical application/day, for 4 days. Animals of group 1 were treated with the vehicle solution (Batch A). Animals of groups 2 to 7 were treated with the indicated peptide at a dose of 5 mg/kg.

[1] = tested on: human microvascular endothelial cells (HMEC); experiment: in vitro angiogenesis assay (Matrigel, endothelial tube formation); type: cell-based; conditions: 400 μg/ml final concentration of each peptide, images at 6 h post incubation
Experimental: Angiogenesis of human microvascular endothelial cells (HMEC) was induced in vitro using a Matrigel assay described by Grant et al (1989, Cell, 1989; 58:933). This method is based on the differentiation of endothelial cells to form capillary structures on a Matrigel Matrix. Matrigel is prepared the Engelbreth-Holm-Swarm (EHS) mouse tumor, which represents a complex mixture of basement membrane proteins including type IV collagen, entactin, proteo-heparan sulfate and other growth factors.
Briefly, 250 μl of Matrigel were transferred to each well of a 24-well culture plate and incubated at 37° C. for 30 min to allow for the matrix solution to solidify. HMEC grown in complete growth medium EGM-2MV were harvested by trypsin, suspended in the same growth medium and 500 μl containing 70 000 cells were added on top of the solidified Matrigel in each well and in the presence or absence of protein. Cells were maintained in a humidified atmosphere air containing 5% CO2 at 37° C. for 18-24 hrs. Endothelial tube formation was observed and photographed under an inverted light microscope.
The results of the in vitro angiogenesis assay were presented in FIG. 1, using HMEC and 400 μg/ml final concentration of each peptide. Images were taken at 6 h post incubation.

[2] = tested on: Akt (phosphoserine 473 pAkt); experiment: activation status of protein kinase B (pAkt) by western-blot in HMEC; type: cell-based, human; conditions: 400 μg/ml, 10 min and 30 min post incubation, immunoblot
Experimental: The activation status of pAkt was determined by western-blot using an anti-phosphoserine 473 pAkt antibody, and anti-GAPDH mAb as internal standard.
The status of Akt in the HMEC following incubation with either peptide 7 or peptide 10 was investigated.

VEGFA protein = VEGFA protein by human VEGFA sandwich ELISA in HMEC culture medium; type: cell-based; conditions: HMEC incubated with increasing concentrations of peptide
Experimental: Serum-deprived HMEC were incubated with different concentrations of peptide 7 or peptide 10 or vehicle […]. After 3 washes with ice-cold PBS, cells were suspended with the protein extraction buffer (PEB) (20 mM Tris-HCl pH 7.5, 150 mM NaCl, 1 mM EDTA, 1 mM EGTA, 1% Triton, 25 mM sodium pyrophosphate, 1 mM β-glycero-phosphate, 1 mM Na3Vo4, 1 μg/ml leupeptine, 1 μM PMSF). The protein content was measured by Bradford. VEGFA concentration in the culture medium or in the extracts was determined by human VEGFA Sandwich ELISA kit (Cell Signaling technology) according to the manufacturer's instructions.

MAPK (Erk1 and 2) = experiment: activation status of MAPK (pErk1/2) by western-blot in HMEC; type: cell-based, human; conditions: immunoblot anti-activated MAPK (pErk1/2)
Experimental: The activation status of MAPK was determined by western-blot using an anti-activated MAPK (pErk1/2) antibody, and anti-GAPDH mAb as internal standard.
We have also investigated the status of the mitogen activated protein kinase (MAPK), as it is well established that it represents another cascade of intracellular signaling could be implicated in the regulation of VEGF expression.

Row | Sequence | wound healing compared with Vehicle treated wounds (trans-dermal wounds) | in vitro angiogenesis-inducing activity [1] | % healing of wounds, day 1 post treatment (trans-dermal wounds) | % healing of wounds, day 2 post treatment (trans-dermal wounds) | % healing of wounds, day 3 post treatment (trans-dermal wounds) | % healing of wounds, day 4 post treatment (trans-dermal wounds) | level of activated Akt relative to HMEC incubated without peptide (Control) [2] | VEGF protein within the culture medium, concentration dependence (VEGFA protein) | level of activation of Erk1 and 2 (MAPK) versus Control (MAPK (Erk1 and 2))
1 | ELDLQASL [Peptide 7B] | healed faster than the wounds treated with Vehicle |  |  |  |  |  |  |  | 
2 | QSQKVPRQVQS [Peptide 11] | healed faster than the wounds treated with Vehicle | strong in vitro angiogenesis-inducing activity |  |  |  |  |  |  | 
3 | RRTTQECPVRTSLD [Peptide 7C] | healed faster than the wounds treated with Vehicle |  | 39.4% | 55.3% | 58.8% | 68.2% |  |  | 
4 | TQECPVRTSLD [Peptide 7A] | healed faster than the wounds treated with Vehicle |  | 27.4% | 44.7% | 45.1% | 58.8% |  |  | 
5 | TQECPVRTSLDRELDLQASL [Peptide 7] | healed faster than the wounds treated with Vehicle | strong in vitro angiogenesis-inducing activity |  |  |  |  | much higher level of activated Akt | dose-dependent increase in VEGF protein | not significant variations in level of activation of Erk1 and 2
6 | VSKDVCRL [Peptide 10] | healed faster than the wounds treated with Vehicle | strong in vitro angiogenesis-inducing activity |  |  |  |  | much higher level of activated Akt |  | not significant variations in level of activation of Erk1 and 2

Source: US8288334B2, “Peptides for wound healing” (Gene Signal International SA, priority 2010, dated 2012)
